Measurements from patent US8093209B2, “Methods of suppressing microglial activation and systemic inflammatory responses” (Cognosci, Incorporated, priority 2002, dated 2012).

Experiments:
[1] = test system: enriched microglia primary cultures from apoE deficient mouse pups; test: LPS-stimulated nitric oxide (nitrite) secretion by enriched microglia primary cultures; assay type: cell-based; details: peptide 0 μM to 1000 μM, LPS 100 ng/ml, after 48 hours
Method: Culture preparation and characterization: Mixed glial cell cultures were prepared from: (a) wildtype (C57B16; Jackson Laboratories) mouse pups; (b) ApoE deficient mutant mouse pups (ApoE-deficient mice), and (c) transgenic mouse pups expressing human ApoE3 but not murine ApoE (ApoE3 mice). See Xu et al., Neurobiol. Dis. 3:229 (1996) regarding the creation and characterization of the transgenic mice. Mixed glial cell cultures were prepared as has been described. See McMillian et al., Neurochem. 58:1308 (1992); Laskowitz et al., J. Neuroimmunol. 76:70 (1997). Briefly, brains were removed from 2-4 day old pups, cleaned of membranes and blood vessels, mechanically dispersed in Ca^+2-free media, and collected by centrifugation. Cells were then plated in DMEM/F12 (containing 10% fetal calf serum, 1% penicillin/streptomycin, Gibco #15070), one brain per 25 cm flask. […]
Nitrite Quantification The production of NO was assessed by measuring the accumulation of nitrite, which was quantified using a calorimetric reaction with Griess reagent (0.1% N-1-naphthylethylenediamine dihydrochloride, 1% sulfanilamide, and 2.5% H3PO4). Absorbance was measured at 570 nm by spectrophotometry. […]
Enriched microglia primary cultures were prepared from the brains of apoE deficient mouse pups as described in Example 1, above. […] Nitric oxide production was assessed as described in Example 1. […]

[2] = test system: primary hippocampal neurons; details: cited from earlier work

Sequence: LRKLRKRLL LRKLRKRLL (LRKLRKRLLLRKLRKRLL; fragment of ApoE containing LDL receptor binding site) [SEQ ID NO:3]
- nitric oxide secretion by activated microglia [1]: dose-dependent decrease in nitric oxide secretion
- neuronal cell death [2]: induced neuronal cell death
